Experimental data reported in PubChem BioAssay (NCI).
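Each compound was tested at five concentrations against cells in 96-well plates for 48 hours. GI50 = concentration required for 50% inhibition of growth. TGI is the concentration that stops growth completely.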

Experiments:
Assay in all cases: NCI tumour cell line growth inhibition, 48 h; in the data active means GI50 below about 0.43 µM; inactive means the rest
786-0 renal = tested on: 786-0 renal
A498 renal = tested on: A498 renal
A549 NSCLC = tested on: A549 NSCLC
ACHN renal = tested on: ACHN renal
BT-549 breast = tested on: BT-549 breast
CAKI-1 renal = tested on: CAKI-1 renal
CCRF-CEM leukemia = tested on: CCRF-CEM leukemia
COLO 205 colon = tested on: COLO 205 colon
DU-145 prostate = tested on: DU-145 prostate
EKVX NSCLC = tested on: EKVX NSCLC
HCC-2998 colon = tested on: HCC-2998 colon
HCT-116 colon = tested on: HCT-116 colon
HCT-15 colon = tested on: HCT-15 colon
HL-60(TB) leukemia = tested on: HL-60(TB) leukemia
HOP-62 NSCLC = tested on: HOP-62 NSCLC
HOP-92 NSCLC = tested on: HOP-92 NSCLC
HS 578T breast = tested on: HS 578T breast
HT29 colon = tested on: HT29 colon
IGROV1 ovarian = tested on: IGROV1 ovarian
K-562 leukemia = tested on: K-562 leukemia
KM12 colon = tested on: KM12 colon
LOX IMVI melanoma = tested on: LOX IMVI melanoma
M14 melanoma = tested on: M14 melanoma
MALME-3M melanoma = tested on: MALME-3M melanoma
MCF7 breast = tested on: MCF7 breast
MDA-MB-231 breast = tested on: MDA-MB-231 breast
MDA-MB-435 = tested on: MDA-MB-435
MOLT-4 leukemia = tested on: MOLT-4 leukemia
NCI-H226 lung = tested on: NCI-H226 lung
NCI-H23 lung = tested on: NCI-H23 lung
NCI-H460 lung = tested on: NCI-H460 lung
NCI-H522 lung = tested on: NCI-H522 lung
NCI/ADR-RES ovarian = tested on: NCI/ADR-RES ovarian
OVCAR-3 ovarian = tested on: OVCAR-3 ovarian
OVCAR-4 ovarian = tested on: OVCAR-4 ovarian
OVCAR-5 ovarian = tested on: OVCAR-5 ovarian
OVCAR-8 ovarian = tested on: OVCAR-8 ovarian
RPMI-8226 leukemia = tested on: RPMI-8226 leukemia
RXF 393 renal = tested on: RXF 393 renal
SF-268 CNS = tested on: SF-268 CNS
SF-295 CNS = tested on: SF-295 CNS
SF-539 CNS = tested on: SF-539 CNS
SK-MEL-2 melanoma = tested on: SK-MEL-2 melanoma
SK-MEL-28 melanoma = tested on: SK-MEL-28 melanoma
SK-MEL-5 melanoma = tested on: SK-MEL-5 melanoma
SK-OV-3 ovarian = tested on: SK-OV-3 ovarian
SN12C renal = tested on: SN12C renal
SNB-19 CNS = tested on: SNB-19 CNS
SNB-75 CNS = tested on: SNB-75 CNS
SW-620 colon = tested on: SW-620 colon
T-47D breast = tested on: T-47D breast
TK-10 renal = tested on: TK-10 renal
U251 CNS = tested on: U251 CNS
UACC-257 melanoma = tested on: UACC-257 melanoma
UACC-62 melanoma = tested on: UACC-62 melanoma
UO-31 renal = tested on: UO-31 renal

CCOC(=O)c1sc(NC(=O)COc2cccc(/C=C3\CCc4cc(OC)ccc4C3=O)c2)nc1C
25.3 µM: TGI (OVCAR-8 ovarian)
12.2 µM: TGI (MOLT-4 leukemia)
7.58 µM: TGI (SF-539 CNS)
4.3 µM: TGI (CCRF-CEM leukemia)
13.8 µM: TGI (NCI-H460 lung)
49.7 µM: TGI (HS 578T breast)
8.44 µM: TGI (RXF 393 renal)
55.2 µM: TGI (HOP-62 NSCLC)
inactive: GI50 (786-0 renal) 17 µM | GI50 (A498 renal) 16.3 µM | GI50 (A549 NSCLC) 34.7 µM | GI50 (ACHN renal) 6 µM | GI50 (BT-549 breast) 3.26 µM | GI50 (CAKI-1 renal) 7.16 µM | GI50 (CCRF-CEM leukemia) 1.26 µM | GI50 (COLO 205 colon) 8.49 µM | GI50 (DU-145 prostate) 1.86 µM | GI50 (EKVX NSCLC) 74 µM | GI50 (HCC-2998 colon) 8.59 µM | GI50 (HCT-116 colon) 3.18 µM | GI50 (HCT-15 colon) 2.93 µM | GI50 (HL-60(TB) leukemia) 1.94 µM | GI50 (HOP-62 NSCLC) 18.2 µM | GI50 (HOP-92 NSCLC) 16.9 µM | GI50 (HS 578T breast) 3.94 µM | GI50 (HT29 colon) 3.71 µM | GI50 (IGROV1 ovarian) 3.02 µM | GI50 (K-562 leukemia) 1.94 µM | GI50 (KM12 colon) 2.3 µM | GI50 (LOX IMVI melanoma) 3.87 µM | GI50 (M14 melanoma) 7.95 µM | GI50 (MALME-3M melanoma) 47 µM | GI50 (MCF7 breast) 3.03 µM | GI50 (MDA-MB-231 breast) 10.1 µM | GI50 (MDA-MB-435) 2.25 µM | GI50 (MOLT-4 leukemia) 2.94 µM | GI50 (NCI-H226 lung) 28.3 µM | GI50 (NCI-H23 lung) 15.8 µM | GI50 (NCI-H460 lung) 3.19 µM | GI50 (NCI-H522 lung) 3.6 µM | GI50 (NCI/ADR-RES ovarian) 4.84 µM | GI50 (OVCAR-3 ovarian) 3.19 µM | GI50 (OVCAR-4 ovarian) 9.07 µM | GI50 (OVCAR-5 ovarian) 13.5 µM | GI50 (OVCAR-8 ovarian) 4.59 µM | GI50 (RPMI-8226 leukemia) 1.2 µM | GI50 (RXF 393 renal) 2.83 µM | GI50 (SF-268 CNS) 3.21 µM | GI50 (SF-295 CNS) 5.45 µM | GI50 (SF-539 CNS) 2.1 µM | GI50 (SK-MEL-2 melanoma) 5.38 µM | GI50 (SK-MEL-28 melanoma) 18.2 µM | GI50 (SK-MEL-5 melanoma) 2.65 µM | GI50 (SK-OV-3 ovarian) 6.39 µM | GI50 (SN12C renal) 3.89 µM | GI50 (SNB-19 CNS) 2.78 µM | GI50 (SNB-75 CNS) 2.51 µM | GI50 (SW-620 colon) 3.79 µM | GI50 (T-47D breast) 3.75 µM | GI50 (TK-10 renal) 21.7 µM | GI50 (U251 CNS) 2.98 µM | GI50 (UACC-257 melanoma) 9.79 µM | GI50 (UACC-62 melanoma) 5.43 µM | GI50 (UO-31 renal) 5.99 µM
6.71 µM: TGI (OVCAR-3 ovarian)
4.92 µM: TGI (HL-60(TB) leukemia)
15.7 µM: TGI (LOX IMVI melanoma)
3.81 µM: TGI (DU-145 prostate)
> 100 µM: TGI (786-0 renal) | TGI (A549 NSCLC) | TGI (ACHN renal) | TGI (BT-549 breast) | TGI (CAKI-1 renal) | TGI (EKVX NSCLC) | TGI (HCT-116 colon) | TGI (HCT-15 colon) | TGI (HT29 colon) | TGI (M14 melanoma) | TGI (MALME-3M melanoma) | TGI (MCF7 breast) | TGI (MDA-MB-231 breast) | TGI (MDA-MB-435) | TGI (NCI-H226 lung) | TGI (NCI-H23 lung) | TGI (NCI-H522 lung) | TGI (NCI/ADR-RES ovarian) | TGI (OVCAR-4 ovarian) | TGI (OVCAR-5 ovarian) | TGI (SF-295 CNS) | TGI (SK-MEL-2 melanoma) | TGI (SK-MEL-28 melanoma) | TGI (SK-OV-3 ovarian) | TGI (SN12C renal) | TGI (SNB-19 CNS) | TGI (SNB-75 CNS) | TGI (T-47D breast) | TGI (TK-10 renal) | TGI (UACC-257 melanoma) | TGI (UACC-62 melanoma) | TGI (UO-31 renal)
5.12 µM: TGI (KM12 colon)
12.3 µM: TGI (SF-268 CNS)
9.13 µM: TGI (U251 CNS)
76.6 µM: TGI (A498 renal)
38.8 µM: TGI (HCC-2998 colon)
6.26 µM: TGI (K-562 leukemia)
21 µM: TGI (IGROV1 ovarian)
3.38 µM: TGI (RPMI-8226 leukemia)
43.4 µM: TGI (COLO 205 colon)
13.3 µM: TGI (SK-MEL-5 melanoma) | TGI (SW-620 colon)
36.9 µM: TGI (HOP-92 NSCLC)
